# Source: article PMC9497102, “Thiosemicarbazone Derivatives Developed to Overcome COTI-2 Resistance” (Cancers, 2022)
# Read-outs that look alike come from different tables or passages of the source.
# Columns and labels:
# [1] = pKa by UV-vis spectrophotometric titrations; format: physicochemical; conditions: 30% (v/v) DMSO/H2O solution, I = 0.1 M (KCl), 25 °C
# Procedure: (§1) The UV-vis spectra were recorded using an Agilent Cary 8454 diode array spectrophotometer in the 200 to 950 nm window, and the path length was varied between 1 and 5 cm, depending on the solubility (thus the applicable concentration). For the spectrophotometric titrations, the same instruments (Metrohm 665 Dosimat burette, Orion 710A pH-meter, Metrohm combined pH glass electrode) and experimental setup (ionic strength: 0.10 M (KCl); titrant: 0.10 M carbonate-free KOH solution in 30% (v/v) DMSO/H2O; samples: prepared in 30% (v/v) DMSO/H2O; calibration: method of Irving et al.; pH range: 1.0 to 13.5; and sample volume: 10 cm^3) were used as in our previous work. Argon overpressure was used for the Fe(II)-containing samples when the Fe(II) stock solution was added to the samples in tightly closed titration vessels, which were previously completely deoxygenated (for 20 min). Measurements were taken with ligands (10–80 μM, depending on solubility) in the presence of 1, 0.5, and 0.3 equiv. of Cu(II), Fe(II), and Fe(III) ions. Equilibrium constants, such as the proton dissociation constants (pKa) of the ligands, the overall stability constants (logβ) of the metal complexes, and the UV-vis spectra of the individual ligand or complex species were computed using the program PSEQUAD [18], as was the case in our previous works.
# [2] = Spectrophotometric redox reaction of copper(II) complexes with GSH or AA; format: physicochemical; conditions: 300 equiv. GSH, pH 7.4, after formation of mixed-ligand GSH adduct
# Procedure: A Hewlett Packard 8452A diode array spectrophotometer and a special, tightly closed tandem cuvette (Hellma Tandem Cell, 238-QS) were used to monitor the redox reactions of the Cu(II) and Fe(III) complexes with GSH and AA. The spectra were recorded at a physiological pH (pH = 7.4, 50 mM HEPES, I = 0.1 M KCl) when the metal complexes:GSH or AA ratio was 1:300 (ccomplex = 30 μM, cGSH or AA = 9 mM). The stock solutions of the complexes and the GSH and AA solutions were freshly prepared before every measurement. In the first half of the cuvette, the ligand was mixed with the complex, and the other contained the reducing agent. Both isolated parts of the cuvette were deoxygenated with argon for 10 min. The first spectrum was recorded before mixing, and then after mixing, the reduction was usually followed until no further absorbance change was observed.
# [3] = Iron(III) complex formation, UV-vis spectrophotometric titrations; format: physicochemical; conditions: for pFe(III)*: Fe(III) hydroxido species also considered as unbound metal, cFe = 1 μM; for pFe(III)* / pFe(III): cL = 10 μM, pH = 7.40; for pFe(III): –log[free Fe(III)] calculated at cFe = 1 μM
# Procedure: as §1
# SW480 cells [4] = assay: Cell cycle analysis by PI staining and flow cytometry; format: cell-based, human; conditions: 24 h
# Procedure: The cell cycle phases were analyzed by staining the DNA of ethanol-fixed cells with PI, as previously described. SW480 and SW480/Coti cells were seeded at a density of, 2 × 10^5 cells/well in 6-well plates and treated with the indicated concentrations of COTI-2 and COTI-NMe2 for 24 h. Then, cells were collected by trypsinization and fixed in cold 70% ethanol. In order to digest RNA, the cells were treated with RNase (0.2 mg/mL, Sigma) and, subsequently, DNA was stained with PI (1 µg/mL). Fluorescence was measured by flow cytometry (FACS Calibur, Becton Dickinson, Ashland, CA, USA) and cell cycle phases were analyzed using Cell Quest Pro software.
# SW480 cells [5] = assay: Mitotic nuclei by DAPI staining; format: cell-based, human; conditions: 24 h
# Procedure: In order to detect mitotic nuclei, fixed cells were stained with DAPI. SW480 and SW480/Coti cells were seeded at a density of 2 × 10^5 cells per well in 6-well plates and left to recover for 24 h. This was followed by drug treatment at the indicated concentrations for 24 h. Then, cells were collected and spun on slides by centrifugation with a Thermo Scientific Cytospin 4 (400 rpm, 5 min at 4 °C). The slides were dried, and the cells were fixed with a methanol/acetone (1:1) mixture at −20 °C and stained with a solution containing DAPI (1 µg/mL). A final washing step with phosphate-buffered saline (PBS) was performed, followed by covering the slides with vectashield (H-100, Vector Laboratories, Inc., Newark, CA, USA) and coverslips. Mitotic nuclei were counted with Image J in three different areas per slide from three independent experiments.
# SW480 cells [6] = assay: MTT viability assay, 72 h; format: cell-based, human; conditions: for IC50: Homo sapiens, SW480, MTT; for enhancement of cytotoxicity by copper complexation: copper complex vs. ligand
# Procedure: (§2) In vitro tests were performed with human colorectal cancer SW480 cells (purchased from the American Type Culture Collection, Manassas, VA, USA), SW480/Tria, and the SW480/Coti cells, which are previously established sublines that are resistant to Triapine and COTI-2 [16], respectively. Additionally, small-cell lung carcinoma GLC-4 and its subline GLC-4/adr, which is a doxorubicin-resistant subline overexpressing ABCC1 (purchased from Dr. […], Groningen, The Netherlands), were used. All cells were maintained in a humidified 5% CO2 incubator at 37 °C and grown in minimal essential medium or RPMI-1640, respectively, supplemented with 10% fetal bovine serum (FBS). In order to maintain the resistant phenotype of GLC-4/adr cells, they were selected with doxorubicin (1152 nM) once a month. All cell lines were tested for mycoplasma contamination. For the cytotoxicity, cell viability, and proliferation studies, the 3-(4,5-dimethylthiazol-2-yl)-2,5-diphenyltetrazolium bromide (MTT) assay was utilized. Cells were seeded in 96-well plates at a density of 2 × 10^4 cells/well, with the exception of SW480/Tria, which was used at a density of 3 × 10^4 cells/well. After 24 h of recovery, cells were treated with the indicated concentration of drugs. For the drug combination experiments, verapamil and cyclosporine A (CSA) were used as ABCC1 modulators, and tetrathiomolybdate (TTM) was used as a copper chelator. The TSCs were dissolved in DMSO followed by subsequent dilutions in the medium in order to maintain a final DMSO concentration of <1%. After 72 h, the treatment solution was removed and replaced with 100 μL of MTT solution (EZ4U, Biomedica, Vienna, Austria), which was diluted 1:10 in the growth medium. A TECAN Infinite 200 Pro plate reader was used to measure the absorbance of the solution after 2-3 h incubation at 5% CO2 in an incubator at 37 °C. The anticancer activity was determined with GraphPad Prism software and indicated as IC50 values (half maximum inhibitory concentration).
# SW480/Tria cells = assay: MTT viability assay, 72 h; format: cell-based, human; conditions: for IC50: Homo sapiens, SW480, 72 h, MTT; for Relative Resistance SW480/Tria: IC50 of resistant subline divided by IC50 of parental SW480
# Procedure: as §2
# [7] = Iron(II) complex formation, UV-vis spectrophotometric titrations (anaerobic); format: physicochemical; conditions: for pFe(II): –log[free Fe(II)] calculated at cFe = 1 μM, cL = 10 μM, pH = 7.40
# Procedure: as §1
# [8] = T = 25.0 °C, I = 0.10 M (KCl), 30% (v/v) DMSO/H2O
SMILES,pKa ([1]; read-out: pKa (H2L)),pKa ([1]; read-out: pKa (HL)),redox reaction of the copper(II) complex with GSH [2],pFe(III)* [3],"logβ [Fe(III)L2]^+ [3, 8]","logβ [Fe(III)L]^2+ [3, 8]",pFe(III) [3],effect on G2/M population (SW480 cells [4]),effect on mitotic cell fraction (SW480 cells [5]),IC50 (SW480 cells [6]; 72 h) [nM],IC50 (SW480/Tria cells) [nM],Relative Resistance SW480/Tria (SW480/Tria cells),"logβ [Fe(II)L2] [7, 8]","logβ [Fe(II)L]^+ [7, 8]",pFe(II) [7],"enhancement of cytotoxicity by copper complexation (SW480 cells [6]; SW480 cells, 72 h)",further results
"CN(C)C(=S)NN=C1CCCc2cccnc21 (mixture of isomers) [COTI-NMe2, 2-(6,7-Dihydroquinolin-8(5H)-ylidene)-N^4,N^4-dimethylhydrazine-1-carbothioamide]",3.65 ± 0.01,12.09 ± 0.01,no measurable spectral changes were seen,11.1,32.77 ± 0.03,17.25 ± 0.02,19.2,significant reduction in the G2/M population,(complete) loss of the mitotic cell fraction,40 ± 10,40 ± 20,1.0 ^n.s.,31.33 ± 0.09,17.62 ± 0.03,17.8,–,"lower IC50 value than the other tested COTI-2 derivatives (SW480 cells [6]; SW480 cells): ~ 10 fold; lower IC50 value than COTI-2 (SW480 cells [6]; SW480 cells, 72 h): 11 fold"
"S=C(N/N=C1\CCCc2cccnc21)N1CCN(c2ccccn2)CC1 [COTI-2, 4-(pyridine-2-yl)-N-([(8E)-5,6,7,8-tetrahydroquinolin-8-ylidene]amino)piperazine-1-carbothioamide]",5.08 ± 0.01,10.97 ± 0.01,–,10.6,29.98 ± 0.06,18.02 ± 0.03,18.6,significant reduction in the G2/M population,(complete) loss of the mitotic cell fraction,370 ± 170,–,1.1 ^n.s.,30.63 ± 0.09,18.28 ± 0.06,19.3,7–8 fold,"pKa ([1]; read-out: pKa (H3L)): 3.23 ± 0.01; logβ [Fe(III)LH]^3+ [3, 8]: 21.16 ± 0.03; free ligand in the presence of iron(III) ([3]; calculated distribution, 1 µM COTI-2, 2:1 ligand:iron(III), pH 7.4): 10–20%; logβ [Fe(II)L2H2]^2+ [7, 8]: 41.18 ± 0.06; logβ [Fe(II)L2H]^+ [7, 8]: 36.74 ± 0.09; logβ [Fe(II)LH]^2+ [7, 8]: 21.00 ± 0.03"
"CN(C(=S)N/N=C1\CCCc2cccnc21)C1CCCCC1 [COTI-NMeCy, N-Cyclohexyl-2-(6,7-dihydroquinolin-8(5H)-ylidene)-N^4-methylhydrazine-1-carbothioamide]",3.47 ± 0.01,12.4 ± 0.01,no measurable spectral changes were seen,9.9,32.20 ± 0.03,17.06 ± 0.02,18.0,–,–,640 ± 100,710 ± 170,1.1 ^n.s.,31.04 ± 0.03,18.66 ± 0.03,16.9,7–8 fold,–
